According to the Deep4Chem optical property database:
Values belong to the compound of their own block, whether it stands above or below them.

Assay: solvent given as SMILES
[1] = in O=P(c1ccccc1)(c1ccccc1)c1ccccc1Oc1ccccc1P(=O)(c1ccccc1)c1ccccc1
[2] = in c1cc(-n2c3ccccc3c3ccccc32)cc(-n2c3ccccc3c3ccccc32)c1

fluorescence lifetime (in ClCCl): 1.86 ns
SMILES: COc1ccc2cc(/C=C/C3=[O+][B-](F)(F)OC(/C=C/c4ccc5cc(OC)ccc5c4)=C3c3ccccc3)ccc2c1

fluorescence lifetime (in C1CCCCC1): 2.2 ns
SMILES: CC(=O)c1ccc(-c2nc3ccc(N(C)C)cc3s2)cc1

fluorescence lifetime (in C1CCOC1): 1.69 ns
SMILES: CN(C)c1ccc(C2=Nc3scc(-c4ccc(C#N)cc4)[n+]3[B-](F)(F)O2)cc1

fluorescence lifetime (in CC#N): 2.75 ns
SMILES: COc1ccc2cc(/C=C/c3ccccc3)c(=O)oc2c1

fluorescence lifetime (in C1CCOC1): 2.1 ns
SMILES: COc1cc2c(cc1-c1ccc(C#N)cc1)Cc1c3c(c4c(c1-2)-c1cc(OC)c(-c2ccc(C#N)cc2)cc1C4)C(=O)N(CCC(C)C)C3=O

fluorescence lifetime (in O): 2 ns
SMILES: CN(C)c1ccc2cc3ccc(N(C)C)cc3nc2c1

fluorescence lifetime (in ClCCl): 13.4 ns
SMILES: Cc1cc(-c2cccc3ccccc23)cc(C)[o+]1

fluorescence lifetime (in C1CCOC1): 5.1 ns
SMILES: CC(=O)c1ccc(-c2cnc3nn4ccccc4c3n2)cc1

fluorescence lifetime (in CC#N): 18.8 ns
SMILES: Fc1ccc(-[c+]2c3ccccc3oc3ccccc32)cc1

fluorescence lifetime (in C1CCOC1): 9.21 ns
SMILES: CCN(CC)c1ccc(-c2nc3c4ccccc4n(C)c3nc2-c2ccc(B(c3c(C)cc(C)cc3C)c3c(C)cc(C)cc3C)cc2)cc1

fluorescence lifetime (in ClC(Cl)Cl): 2.1 ns
SMILES: Cc1ccc(C(=O)/N=c2\oc3cccc4c5c(-c6ccccc6)oc6cccc(c(c2-c2ccccc2)c34)c65)cc1

fluorescence lifetime (in C1CCOC1): 0.42 ns
SMILES: Cc1csc(C)c1C1=C(c2c(C)sc(-c3ccc(-c4nc(-c5ccccc5)c(-c5ccccc5)[nH]4)cc3)c2C)C(F)(F)C(F)(F)C1(F)F

fluorescence lifetime (in ClCCl): 1.8 ns
SMILES: COc1ccc(C2=Nc3cccc4[n+]3[B-](F)(O2)OC(c2ccc(OC)cc2)=N4)cc1

fluorescence lifetime (in ClCCl): 3.28 ns
SMILES: CC(C)(C)NC(=O)c1cc2ccccc2c2ccc3c4ccccc4c4ccccc4c3c12

fluorescence lifetime (in ClCCl): 0.1 ns
SMILES: N#C/C(=C\c1ccc(-c2ccncc2)cc1)c1ccc(-c2ccncc2)cc1

fluorescence lifetime [2]: 5.9 ns
SMILES: COc1ccc(-c2ccc3c(c2)c2cc(-c4ccc(OC)cc4)ccc2n3-c2ccc(C(=O)c3ccc4sc5ccccc5c4c3)cn2)cc1

fluorescence lifetime [2]: 17 ns
SMILES: O=C(c1ccccc1)c1cc2ccc1CCc1ccc(cc1-c1ccc(N(c3ccccc3)c3ccccc3)cc1)CC2

fluorescence lifetime (in ClCCl): 1.22 ns
SMILES: Cc1c(C2=[N+]3C(=Cc4c(C)c5ccccc5n4[B-]3(F)F)c3ccccc32)[nH]c2ccccc12

fluorescence lifetime (in C1CCOC1): 5.43 ns
SMILES: CC1=[N+]2C(=C(c3ccccc3)c3ccc(/C=C/c4ccc(C(=C(c5ccccc5)c5ccccc5)c5ccccc5)cc4)n3[B-]2(F)F)C=C1

fluorescence lifetime (in C1CCCCC1): 4.2 ns
SMILES: C[Si](C)(C)C#Cc1ccc2c3cccc4cccc(c5cccc1c52)c43

fluorescence lifetime (in C1CCOC1): 2.25 ns | fluorescence lifetime (in C1COCCO1): 2.17 ns | fluorescence lifetime (in CC#N): 2.2 ns | fluorescence lifetime (in CC(C)O): 1.98 ns | fluorescence lifetime (in CCO): 1.84 ns | fluorescence lifetime (in CCOC(C)=O): 2.18 ns | fluorescence lifetime (in CN(C)C=O): 2.12 ns | fluorescence lifetime (in CO): 1.67 ns | fluorescence lifetime (in CS(C)=O): 2 ns | fluorescence lifetime (in O): 3.07 ns
SMILES: NS(=O)(=O)c1ccc(N2N=C(c3ccc(O)cc3)CC2c2ccc(Br)cc2)cc1 (stereo not drawn)

The next lines start with the compound.

SMILES: CC(=O)OC[C@H]1O[C@@H](OCC#Cc2ccc(C3=C4C(C)=CC(/C=C/c5ccc(N(C)C)cc5)=[N+]4[B-](F)(F)n4c(/C=C/c5ccc(N(C)C)cc5)cc(C)c43)cc2)[C@H](OC(C)=O)C(OC(C)=O)[C@@H]1OC(C)=O (stereo partly drawn)
fluorescence lifetime (in CC#N): 2.4 ns

SMILES: COC(=O)C(Cc1ccc2oc(-c3ccc(N(C)C)cc3)nc2c1)NC(=O)OC(C)(C)C (stereo not drawn)
fluorescence lifetime (in C1CCCCC1): 1.02 ns | fluorescence lifetime (in C1CCOC1): 1.21 ns | fluorescence lifetime (in C1COCCO1): 1.21 ns | fluorescence lifetime (in CC1CCCO1): 1.15 ns | fluorescence lifetime (in CC1COC(=O)O1): 1.41 ns | fluorescence lifetime (in CC#N): 1.32 ns | fluorescence lifetime (in CC(C)=O): 1.26 ns | fluorescence lifetime (in CC(C)CC(C)(C)C): 1.02 ns | fluorescence lifetime (in CC(C)CO): 1.29 ns | fluorescence lifetime (in CC(C)O): 1.3 ns | fluorescence lifetime (in CC(C)OC(C)C): 1.2 ns | fluorescence lifetime (in CC(O)CO): 1.32 ns | fluorescence lifetime (in CCC(C)CC): 1 ns | fluorescence lifetime (in CCCCC): 1.12 ns | fluorescence lifetime (in CCCCCC): 1.04 ns | fluorescence lifetime (in CCCCCCCCC): 1.08 ns | fluorescence lifetime (in CCCCCCCCCC): 1.09 ns | fluorescence lifetime (in CCCCCCCO): 1.3 ns | fluorescence lifetime (in CCCCCCO): 1.32 ns | fluorescence lifetime (in CCCCCO): 1.25 ns | fluorescence lifetime (in CCCCO): 1.29 ns | fluorescence lifetime (in CCO): 1.35 ns | fluorescence lifetime (in CCOC(C)=O): 1.19 ns | fluorescence lifetime (in CCOCC): 1.24 ns | fluorescence lifetime (in CN(C)C=O): 1.28 ns | fluorescence lifetime (in CO): 1.26 ns | fluorescence lifetime (in COCCOC): 0.88 ns | fluorescence lifetime (in CS(C)=O): 1.26 ns | fluorescence lifetime (in Cc1ccccc1): 1.04 ns | fluorescence lifetime (in Cc1ccccc1C): 1.07 ns | fluorescence lifetime (in ClC(Cl)Cl): 0.79 ns | fluorescence lifetime (in ClCCl): 1.23 ns | fluorescence lifetime (in NC=O): 1.14 ns | fluorescence lifetime (in OC1CCCCC1): 1.28 ns | fluorescence lifetime (in OCCO): 1.13 ns | fluorescence lifetime (in c1ccccc1): 1.08 ns

SMILES: c1ccc(-c2ccc(-c3ccc(-n4c5ccccc5c5ccccc54)cc3)c3nsnc23)cc1
fluorescence lifetime (in C1CCOC1): 7.52 ns | fluorescence lifetime (in CC(C)=O): 5.2 ns | fluorescence lifetime (in CCCCCC): 5.87 ns | fluorescence lifetime (in CCOCC): 7.2 ns

SMILES: CC1(C)C(=O)C=Cc2ccc(O)cc21
fluorescence lifetime (in O): 2.45 ns

SMILES: CCOC(=O)c1cc(C)n2nc(-c3ccccc3)ccc12
fluorescence lifetime (in CCCCCC): 17.4 ns

SMILES: CCC(CC)COC1=CC2=C3c4cc(OCC(CC)CC)c(-c5ccccc5)n4[B-](F)(F)[n+]4c3n(c3cc(C(C)(C)C)ccc34)[B-](F)(F)[N+]2=C1c1ccccc1
fluorescence lifetime (in C1CCOC1): 0.97 ns | fluorescence lifetime (in ClCCl): 1.01 ns

SMILES: CC1(C)c2ccccc2N(c2ccccc2)c2ccc(-c3ccc(C(=O)c4ccc(-c5ccc6c(c5)C(C)(C)c5ccccc5N6c5ccccc5)cc4)cc3)cc21
fluorescence lifetime [1]: 1.87 ns

SMILES: c1cc2c3c(c1)OCCCCCCCOc1cccc(c1-c1c4ccccc4c-3c3ccccc13)OCCCCCCCO2
fluorescence lifetime (in C1CCCCC1): 8.18 ns

SMILES: CCOc1cc2c(cc1/C=C/C1=CC(=C(C#N)C#N)CC(C)(C)C1)c1ccccc1n2CC
fluorescence lifetime (in C1CCOC1): 4.47 ns | fluorescence lifetime (in CC#N): 3.81 ns | fluorescence lifetime (in CCO): 4.28 ns | fluorescence lifetime (in CCOC(C)=O): 7.08 ns | fluorescence lifetime (in CN(C)C=O): 4.01 ns | fluorescence lifetime (in CS(C)=O): 4.94 ns | fluorescence lifetime (in Cc1ccccc1): 3.84 ns | fluorescence lifetime (in ClC(Cl)Cl): 4.37 ns | fluorescence lifetime (in ClCCl): 6.24 ns

SMILES: CN(C)c1ccc(/C=C/C=C/c2ccc(B(O)O)cc2)cc1
fluorescence lifetime (in C1CCCCC1): 0.621 ns

SMILES: CCN1CCCc2cc3c(cc21)Oc1cc2c(cc1=N3)C(CS(=O)(=O)[O-])CC(C)(C)[N+]=2CCCC(=O)[O-] (stereo not drawn)
fluorescence lifetime (in O): 3.6 ns

SMILES: CN(C)c1ccc(N(C)C)cc1
fluorescence lifetime (in C1CCCCC1): 6.1 ns

SMILES: COC(=O)c1c(C(=O)OC)c2ccc(C)nn2c1C
fluorescence lifetime (in CCCCCC): 14.1 ns

SMILES: CCCCC(CC)COc1ccc2nc(-c3ccc(-c4cccs4)s3)sc2c1 (stereo not drawn)
fluorescence lifetime (in ClCCl): 0.42 ns

SMILES: c1ccc(-c2cc3cccc[n+]3[b-]3c(-c4cccc5[b-]4[n+]4ccccc4cc5-c4ccccc4)cccc32)cc1
fluorescence lifetime (in C1CCCCC1): 4.5 ns

SMILES: Fc1ccc(N(c2ccccc2)c2ccc3ccc4c(N(c5ccccc5)c5ccc(F)cc5)ccc5ccc2c3c54)cc1
fluorescence lifetime (in ClCCl): 5.5 ns

SMILES: CCCCCCCCN1c2ccc(C#Cc3ccc(C(F)(F)F)cc3)cc2Sc2cc(C=O)ccc21
fluorescence lifetime (in C1CCOC1): 8.1 ns | fluorescence lifetime (in CC#N): 6.52 ns | fluorescence lifetime (in CCCCCC): 6.45 ns | fluorescence lifetime (in CO): 4.04 ns | fluorescence lifetime (in CS(C)=O): 7.77 ns | fluorescence lifetime (in Cc1ccccc1): 7.43 ns | fluorescence lifetime (in ClC(Cl)Cl): 7.03 ns

SMILES: COc1ccc(N(c2ccc(OC)cc2)c2ccc(-c3ccc4c(c3)C(=O)c3ccccc3C4=O)cc2)cc1
fluorescence lifetime (in CCCCCC): 7.04 ns | fluorescence lifetime (in Cc1ccccc1): 1.09 ns | fluorescence lifetime (in ClC(Cl)(Cl)Cl): 5.94 ns

SMILES: CCCCCCCC[n+]1ccc(-c2cc[n+](CCCCCCCC)cc2)cc1
fluorescence lifetime (in CC#N): 1 ns

SMILES: C[n+]1ccn(CCCCc2ccc3c(c2)c2ccccc2n3-c2cc(C#N)c(C#N)cc2F)c1
fluorescence lifetime (in CC#N): 3.26 ns

SMILES: CCCCCCCCOc1ccc(C2=C3C(C)=C(C#Cc4ccc(B(c5c(C)cc(C)cc5C)c5c(C)cc(C)cc5C)cc4)C(C)=[N+]3[B-](F)(F)n3c(C)c(C#Cc4ccc(B(c5c(C)cc(C)cc5C)c5c(C)cc(C)cc5C)cc4)c(C)c32)cc1
fluorescence lifetime (in CC#N): 4.37 ns | fluorescence lifetime (in CCCCCC): 5.4 ns | fluorescence lifetime (in ClCCl): 4.39 ns

SMILES: CCCCCCc1cc(-c2ccc3c(c2)C2CCCC2N3c2ccc3c(c2)C(C)(C)c2ccccc2-3)sc1/C=C1\C(=O)c2ccc(C(=O)O)cc2C1=O (stereo not drawn)
fluorescence lifetime (in ClC(Cl)Cl): 1.32 ns

SMILES: c1ccc(-c2nc(-c3ccccc3)nc(-c3cc(-n4c5ccccc5c5ncccc54)c(-n4c5ccccc5c5ccccc54)c(-n4c5ccccc5c5ncccc54)c3)n2)cc1
fluorescence lifetime [1]: 6 ns

SMILES: COc1ccc2c3cccc4c(OC)ccc(c5cccc1c52)c43
fluorescence lifetime (in C1CCOC1): 3.95 ns | fluorescence lifetime (in Cc1ccccc1): 3.6 ns | fluorescence lifetime (in ClC(Cl)(Cl)Cl): 3.65 ns | fluorescence lifetime (in ClC(Cl)Cl): 3.89 ns | fluorescence lifetime (in ClCCl): 4.33 ns | fluorescence lifetime (in c1ccncc1): 4.02 ns

SMILES: Cc1ccc(-c2ccc(-c3ccc(-c4ccc(C)cc4)cc3/C(=C(/c3ccccc3)c3cc(-c4ccc(C)cc4)ccc3-c3ccc(-c4ccc(C)cc4)cc3)c3ccccc3)cc2)cc1
fluorescence lifetime (in C1CCOC1): 8.6 ns

SMILES: Cn1c2ccccc2c2c1c1ccccc1n2C
fluorescence lifetime (in CCCO): 9 ns

SMILES: Cn1c(=O)c(/N=N/c2cc(S(=O)(=O)O)ccc2C(=O)O)c(O)c2ccccc21
fluorescence lifetime (in CS(C)=O): 0.06 ns

SMILES: C=Cc1cc2ccccc2oc1=O
fluorescence lifetime (in CC#N): 0.39 ns

SMILES: N#Cc1c(-n2c3ccccc3c3ccccc32)c(C#N)c(-n2c3ccccc3c3ccccc32)c(-n2c3ccccc3c3ccccc32)c1-n1c2ccccc2c2ccccc21
fluorescence lifetime (in Cc1ccccc1): 17.8 ns

SMILES: CCN(CC)c1cc2oc(=O)cc(C)c2cc1C
fluorescence lifetime (in CCO): 2.56 ns

SMILES: CC(=O)OCCOCCN1C(=O)c2cc(NCCOCCO)c3c4c(cc(NCCOCCO)c(c24)C1=O)C(=O)N(CCOCCOC(C)=O)C3=O
fluorescence lifetime (in CO): 8 ns | fluorescence lifetime (in ClC(Cl)Cl): 9.6 ns | fluorescence lifetime (in O): 4.4 ns

SMILES: CCC1(CC)c2cc(B(c3c(C)cc(C)cc3C)c3c(C)cc(C)cc3C)ccc2-c2c1c1c(c3c2C(CC)(CC)c2cc(N(c4ccccc4)c4ccccc4)ccc2-3)C(CC)(CC)c2cc(N(c3ccccc3)c3ccccc3)ccc2-1
fluorescence lifetime (in C1CCOC1): 14.4 ns

SMILES: Cc1cc(C)c2c(c1)c1cc(C)cc(C)c1n2-c1ccc2c(c1)Sc1cc3c(cc1B2c1c(C(C)C)cc(C(C)C)cc1C(C)C)B(c1c(C(C)C)cc(C(C)C)cc1C(C)C)c1ccccc1S3
fluorescence lifetime (in Cc1ccccc1): 0.65 ns | fluorescence lifetime (in O=P(c1ccccc1)(c1ccccc1)c1ccc2oc3ccc(P(=O)(c4ccccc4)c4ccccc4)cc3c2c1): 2 ns
